Test results: patent publication US7211562B2, “Methods for enhancing the efficacy of cytotoxic agents through the use of HSP90 inhibitors” (Sloan-Kettering Institute for Cancer Research, priority 2000, dated 2007)

Columns and labels:
SKBR-3 cells [1] = experiment: Confocal microscopy of spindle formation and nuclear fragmentation (Hoechst / anti-tubulin dual stain); type: cell-based, human; conditions: 12 h; for apoptosis / nuclear fragmentation / mitotic spindle formation / mitotic index: SKBr-3, 10 nM Taxol 4 h followed by 50 nM CNF-101 or vehicle
Experimental: Each experiment was repeated in triplicate.
The effects of Taxol®, CNF-101 and a combination of the two agents on nuclear fragmentation (a marker of apoptosis) and mitotic spindle formation in SKBR-3 cells were assessed.
In these sections, 4% of cells were undergoing mitosis and the mitotic cells appeared normal.

SKBR-3 cells [2] = experiment: Cell cycle distribution by DNA content (FACS); type: cell-based, human; conditions: SKBR-3, 10 nM Taxol 4 h, 50 nM CNF-101 12–24 h, or reversed order
Experimental: Cells were trypsinized and analyzed by DNA content (an indication of cell cycle status) by fluorescent staining and FACS analysis. Cell cycle distribution was assayed according to Nusse et al., 1990, Cytometry, 11: 813, with a Becton Dickinson fluorescence-activated cell sorter and analyzed by Cell Cycle Multi-cycle system (Phoenix Flow System, San Diego, Calif.).

C=CCNC1=C2C[C@@H](C)C[C@H](OC)[C@H](O)[C@@H](C)/C=C(\C)[C@H](OC(N)=O)[C@@H](OC)/C=C\C=C(/C)C(=O)NC(=CC1=O)C2=O [CNF-101, 17-allylamino 17-demethoxygeldanamycin]
apoptosis / nuclear fragmentation (SKBR-3 cells [1]): no significant apoptosis
mitotic spindle formation / mitotic index (SKBR-3 cells [1]): no effect on the spindle
cells undergoing mitosis (SKBR-3 cells [1]; SKBr-3, 50 nM CNF-101 alone (or neither drug)): 4%
cell cycle distribution (SKBR-3 cells [2]): slightly enhanced the G1 fraction

CC(=O)O[C@H]1C(=O)[C@@]2(C)[C@H]([C@H](OC(=O)c3ccccc3)[C@]3(O)C[C@H](OC(=O)[C@H](O)[C@@H](NC(=O)c4ccccc4)c4ccccc4)C(C)=C1C3(C)C)[C@]1(OC(C)=O)CO[C@@H]1C[C@@H]2O [Taxol®, paclitaxel]
apoptosis / nuclear fragmentation (SKBR-3 cells [1]): little evidence of apoptotic nuclear fragmentation
mitotic spindle formation / mitotic index (SKBR-3 cells [1]): increase in the mitotic index with all the mitotic cells appearing to have damaged spindles
cell cycle distribution (SKBR-3 cells [2]): massive G2-M arrest
